Experimental findings from ChEMBL document CHEMBL4808221, “Design and Synthesis of Novel c-di-GMP G-Quadruplex Inducers as Bacterial Biofilm Inhibitors” (J Med Chem, 2021) are described below.

Calls of active or inactive are those of the source. No cut-off for these calls is given here.

The test system of one test is Pseudomonas aeruginosa. The test is described as follows: Antibacterial activity against Pseudomonas aeruginosa PAO1 harboring wspF gene mutation assessed as reduction in bacterial growth at 512 uM by crystal violet staining assay relative to control. It is filed as functional, organism-based.
A further test has as its system Quadruplex DNA. The test is described as follows: Induction of c-di-GMP G-quadruplex formation (unknown origin) measured at 300 nanometer by CD spectroscopy. It is filed as nucleic-acid assay.
In test [1] the test system is c-di-GMP G-quadruplex. The test is described as follows: Induction of c-di-GMP G-quadruplex formation in Pseudomonas aeruginosa PAO1 harboring wspF gene mutation assessed as inhibition of biofilm formation incubated for 20 hrs by crystal violet staining assay relative to control. The test is classed as nucleic-acid assay.
In test [2] the test system is c-di-GMP G-quadruplex. The test is described as follows: Induction of c-di-GMP G-quadruplex formation in Pseudomonas aeruginosa PAO1 harboring wspF gene mutation assessed as inhibition of biofilm formation at 1.25 uM incubated for 20 hrs by crystal violet staining assay relative to control. The test is classed as nucleic-acid assay.

As for `CN(C)c1ccc(/C=C/c2ccc3ccccc3[n+]2C)cc1`, the outcome in the test with Pseudomonas aeruginosa and with Quadruplex DNA was inactive. Further, the IC50 in the test on c-di-GMP G-quadruplex [1] was over 100 µM.
As for `C[n+]1c(/C=C/c2ccc(O)cc2)sc2ccccc21`, the inhibition with c-di-GMP G-quadruplex [2] worked out at 10.5%. Also, the outcome in the test with Pseudomonas aeruginosa was inactive. Besides, the result in the test on Quadruplex DNA was Active. In the test with c-di-GMP G-quadruplex [1], the IC50 is over 100 µM.
For `C[n+]1c(/C=C/c2ccccc2)ccc2ccccc21`, in that order: 18.8%, “inactive”, “inactive” and over 100 µM.
For `C[n+]1c(/C=C/c2ccc(O)c(F)c2)ccc2ccccc21`, in that order: 4.21%, “inactive”, “inactive” and over 100 µM.
With `C[n+]1c(/C=C/c2ccc([N+](=O)[O-])cc2)sc2ccccc21`, the result in the test on Pseudomonas aeruginosa was inactive. Besides, in the test with c-di-GMP G-quadruplex [1], the IC50 was over 100 µM.
For `C[n+]1c(/C=C/c2cc(Br)c(O)c(Br)c2)ccc2ccccc21`, the result in the test on Pseudomonas aeruginosa and with Quadruplex DNA was inactive.
For `C[n+]1c(/C=C/c2ccc(F)cc2)sc2ccccc21`, the inhibition in the test on c-di-GMP G-quadruplex [2] worked out at 7.72%. For the same compound, the outcome with Pseudomonas aeruginosa was inactive. The IC50 in the test on c-di-GMP G-quadruplex [1] was over 100 µM.
Take `C[n+]1c(/C=C/c2ccncc2)ccc2ccccc21`: in the test with c-di-GMP G-quadruplex [2], the inhibition turned out to be 13%. Further, the outcome with Pseudomonas aeruginosa and in the test on Quadruplex DNA was inactive. Besides, the IC50 in the test with c-di-GMP G-quadruplex [1] is over 100 µM.
Take `CN1CCN(c2ccc(/C=C/c3ccc4ccccc4[n+]3C)cc2)CC1`: in the test with c-di-GMP G-quadruplex [2], the inhibition was -2.34%. Besides, the outcome with Pseudomonas aeruginosa and in the test on Quadruplex DNA was inactive. Also, the IC50 in the test on c-di-GMP G-quadruplex [1] was over 100 µM.
For `C[n+]1c(/C=C/c2cc[nH]c2)ccc2ccccc21`, in the test with c-di-GMP G-quadruplex [2], the inhibition was 22.2%. Also, the result in the test with Pseudomonas aeruginosa was inactive. For the same compound, in the test with Quadruplex DNA, the outcome was Active. Moreover, in the test with c-di-GMP G-quadruplex [1], the IC50 was found to be 9.61 µM.
Turning to `C[n+]1c(/C=C/c2ccc(Br)cc2)sc2ccccc21`, in the test with c-di-GMP G-quadruplex [2], the inhibition was -4.77%. In the test with Pseudomonas aeruginosa, the result was inactive. Further, in the test with c-di-GMP G-quadruplex [1], the IC50 was over 100 µM.
Take `C[n+]1c(/C=C/c2ccc(O)c(F)c2)sc2ccccc21`: the inhibition with c-di-GMP G-quadruplex [2] is -7.67%. Moreover, the outcome in the test on Pseudomonas aeruginosa and in the test with Quadruplex DNA was inactive. Besides, the IC50 in the test with c-di-GMP G-quadruplex [1] is over 100 µM.
As for `C[n+]1c(/C=C/c2cnccn2)sc2ccccc21`, in the test on c-di-GMP G-quadruplex [2], the inhibition is 11.4%. Also, the outcome in the test with Pseudomonas aeruginosa and with Quadruplex DNA was inactive. Also, the IC50 in the test on c-di-GMP G-quadruplex [1] is over 100 µM.
As to `C[n+]1c(/C=C/c2ccncc2)sc2ccccc21`, the result in the test with Pseudomonas aeruginosa and in the test on Quadruplex DNA was inactive. The IC50 with c-di-GMP G-quadruplex [1] is over 100 µM.
Consider `C[n+]1c(/C=C/c2ccc(Br)cc2)ccc2ccccc21`, for which the result with Pseudomonas aeruginosa was inactive. Also, the IC50 in the test on c-di-GMP G-quadruplex [1] is over 100 µM.
In the case of `C[n+]1c(/C=C/c2ccc(F)cc2)ccc2ccccc21`, the inhibition with c-di-GMP G-quadruplex [2] turned out to be 21.3%. Further, the result in the test with Pseudomonas aeruginosa was inactive. The IC50 with c-di-GMP G-quadruplex [1] is over 100 µM.
For the compound `C[n+]1c(/C=C/c2cc[nH]c2)sc2ccccc21`, the inhibition with c-di-GMP G-quadruplex [2] was determined as 17.7%. Further, in the test on Pseudomonas aeruginosa, the outcome was inactive. The result with Quadruplex DNA was Active. In addition, the IC50 with c-di-GMP G-quadruplex [1] was found to be 7.84 µM.
For `C[n+]1c(/C=C/c2cnccn2)ccc2ccccc21`, in that order: 8.36%, “inactive”, “Active” and over 100 µM.
For `C[n+]1c(/C=C/c2ccc(N)cc2)sc2ccccc21`, the inhibition in the test with c-di-GMP G-quadruplex [2] stood at 14.5%. In the test on Pseudomonas aeruginosa, the outcome was inactive. In addition, the IC50 with c-di-GMP G-quadruplex [1] was over 100 µM.
As for `CN(C)c1ccc(/C=C/c2sc3ccccc3[n+]2C)cc1`, in the test with c-di-GMP G-quadruplex [2], the inhibition is -2.67%. Further, the outcome in the test with Pseudomonas aeruginosa and in the test with Quadruplex DNA was inactive. Also, the IC50 in the test on c-di-GMP G-quadruplex [1] is over 100 µM.
`C[n+]1c(/C=C/c2ccccc2)sc2ccccc21`: in the test with c-di-GMP G-quadruplex [2], the inhibition was determined as 19.5%. The outcome in the test on Pseudomonas aeruginosa and with Quadruplex DNA was inactive. In addition, the IC50 in the test on c-di-GMP G-quadruplex [1] is over 100 µM.
With `C[n+]1c(/C=C/c2cc(Br)c(O)c(Br)c2)sc2ccccc21`, the outcome in the test on Pseudomonas aeruginosa and with Quadruplex DNA was inactive. In the test on c-di-GMP G-quadruplex [1], the IC50 was over 100 µM.
In the case of `C[n+]1c(/C=C/c2ccc([N+](=O)[O-])cc2)ccc2ccccc21`, the result with Pseudomonas aeruginosa was inactive. In addition, the IC50 with c-di-GMP G-quadruplex [1] is over 100 µM.
With `C[n+]1c(/C=C/c2ccc(N3CCOCC3)cc2)sc2ccccc21`, in the test with c-di-GMP G-quadruplex [2], the inhibition is 2.71%. For the same compound, the result in the test on Pseudomonas aeruginosa and with Quadruplex DNA was inactive. For the same compound, the IC50 in the test with c-di-GMP G-quadruplex [1] was over 100 µM.
As for `C[n+]1c(/C=C/c2ccc(N3CCOCC3)cc2)ccc2ccccc21`, the inhibition with c-di-GMP G-quadruplex [2] is 1.18%. The result in the test on Pseudomonas aeruginosa and with Quadruplex DNA was inactive. For the same compound, in the test on c-di-GMP G-quadruplex [1], the IC50 was over 100 µM.
Consider `C[n+]1c(/C=C/c2cccc(O)c2)ccc2ccccc21`, for which the inhibition with c-di-GMP G-quadruplex [2] worked out at 29.4%. In addition, the result with Pseudomonas aeruginosa was inactive. For the same compound, the result in the test on Quadruplex DNA was Active. Further, the IC50 in the test with c-di-GMP G-quadruplex [1] was determined as 6.81 µM.
For `COc1ccc(/C=C/c2sc3ccccc3[n+]2C)cc1`, in that order: -4.78%, “inactive”, “inactive” and over 100 µM.
Taken in the same sequence, the figures for `C[n+]1c(/C=C/c2ccc(N)cc2)ccc2ccccc21` were 2.11%, “inactive”, “Active” and over 100 µM.
Turning to `C[n+]1c(/C=C/c2ccc(O)c(O)c2)sc2ccccc21`, the inhibition with c-di-GMP G-quadruplex [2] worked out at 21.7%. The outcome in the test with Pseudomonas aeruginosa was inactive. Also, the outcome in the test with Quadruplex DNA was Active. In addition, the IC50 with c-di-GMP G-quadruplex [1] was determined as 11.5 µM.
Taken in the same sequence, the figures for `C[n+]1c(/C=C/c2ccc(O)cc2)ccc2ccccc21` were 13.4%, “inactive”, “Active” and over 100 µM.
Take `CN1CCN(c2ccc(/C=C/c3sc4ccccc4[n+]3C)cc2)CC1`: the result with Pseudomonas aeruginosa and with Quadruplex DNA was inactive. For the same compound, in the test with c-di-GMP G-quadruplex [1], the IC50 is over 100 µM.
As to `COc1ccc(/C=C/c2ccc3ccccc3[n+]2C)cc1`, the inhibition with c-di-GMP G-quadruplex [2] is -9.62%. Also, the result in the test on Pseudomonas aeruginosa and with Quadruplex DNA was inactive. Further, the IC50 in the test with c-di-GMP G-quadruplex [1] was over 100 µM.
Take `COc1cc(/C=C/c2ccc3ccccc3[n+]2C)ccc1O`: in the test on c-di-GMP G-quadruplex [2], the inhibition is 21%. In addition, the outcome with Pseudomonas aeruginosa was inactive. Also, the outcome with Quadruplex DNA was Active. The IC50 with c-di-GMP G-quadruplex [1] worked out at 5.4 µM.

For orientation: IC50 means the midpoint of a concentration-inhibition curve. The term inhibition denotes the change of the read-out against control, counted positive when it falls.
